The values below come from patent US20250236608A1, “EGFR INHIBITORS” (Blueprint Medicines Corporation, priority 2022, published 2025).

One assay has as its target EGFR (d746-750) (Homo sapiens (Human), UniProt P00533, DEL746-750). Nature of the assay: Biochemical EGFR inhibition assay, EGFR (d746-750). The note with it: Caliper mobility shift; 1.0 mM ATP or ATP Km; read-out: Enz EGFR_Exon19-del746-750 IC50.
In assay [1] the target is pEGFR (Tyr1068) in PC-9 cells (Ex19Del) (Homo sapiens (Human), UniProt P00533, DEL746-750). Nature of the assay: PC-9 pEGFR AlphaLISA assay. Type of assay: cell-based. The note with it: 4 hours incubation, p-EGFR (Tyr1068) AlphaLISA, read-out: Ext pEGFR_PC-9 Ex19Del IC50. The gist of the method: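 Phospho-EGFR (Tyr1068) was quantified by AlphaLISA SureFire Ultra in lysates of PC-9 cells exposed for 4 h to compound (4-fold, 10-point dilutions).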
pEGFR (Tyr1068) in PC-9 cells (Ex19Del), sequence (P00533 other isoform, or with tags, fused parts or gaps del 746-750): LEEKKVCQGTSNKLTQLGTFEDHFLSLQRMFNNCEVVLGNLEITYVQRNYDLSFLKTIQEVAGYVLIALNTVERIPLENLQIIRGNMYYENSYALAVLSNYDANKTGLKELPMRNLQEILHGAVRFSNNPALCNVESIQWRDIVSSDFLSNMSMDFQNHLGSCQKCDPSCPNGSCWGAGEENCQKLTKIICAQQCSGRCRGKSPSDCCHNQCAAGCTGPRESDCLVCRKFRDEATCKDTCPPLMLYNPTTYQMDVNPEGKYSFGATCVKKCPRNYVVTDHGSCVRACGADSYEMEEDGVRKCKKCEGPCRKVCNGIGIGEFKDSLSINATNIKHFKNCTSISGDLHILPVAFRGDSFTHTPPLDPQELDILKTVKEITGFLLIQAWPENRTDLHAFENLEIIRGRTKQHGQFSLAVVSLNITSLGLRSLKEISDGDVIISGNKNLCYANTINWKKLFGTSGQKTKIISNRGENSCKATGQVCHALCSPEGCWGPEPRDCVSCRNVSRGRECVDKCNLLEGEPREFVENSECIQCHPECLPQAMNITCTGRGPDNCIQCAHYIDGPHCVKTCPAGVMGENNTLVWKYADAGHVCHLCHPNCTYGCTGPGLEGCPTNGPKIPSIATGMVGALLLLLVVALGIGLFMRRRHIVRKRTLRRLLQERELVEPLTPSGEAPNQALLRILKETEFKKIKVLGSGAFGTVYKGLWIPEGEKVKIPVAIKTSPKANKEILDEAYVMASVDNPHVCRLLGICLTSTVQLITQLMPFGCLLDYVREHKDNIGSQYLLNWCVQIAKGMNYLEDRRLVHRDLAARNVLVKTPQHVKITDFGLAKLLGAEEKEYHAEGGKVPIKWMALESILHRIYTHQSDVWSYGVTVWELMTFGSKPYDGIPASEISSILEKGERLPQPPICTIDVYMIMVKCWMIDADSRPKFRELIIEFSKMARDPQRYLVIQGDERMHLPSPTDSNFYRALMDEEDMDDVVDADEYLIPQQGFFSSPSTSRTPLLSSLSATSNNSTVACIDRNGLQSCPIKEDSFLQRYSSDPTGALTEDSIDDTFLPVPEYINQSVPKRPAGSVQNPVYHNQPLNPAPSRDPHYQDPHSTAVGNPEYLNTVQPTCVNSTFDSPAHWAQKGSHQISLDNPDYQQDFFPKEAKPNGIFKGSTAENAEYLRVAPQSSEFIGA
Background: Bead proximity is the source of the signal in Alpha formats.

Another assay has as its target EGFR L858R (Homo sapiens (Human), UniProt P00533, L858R). Nature of the assay: Biochemical EGFR inhibition assay, EGFR L858R. The settings on record: Caliper mobility shift; 1.0 mM ATP or ATP Km; read-out: Enz EGFR_L858R IC50.

The structures appear in SMILES notation.

EGFR (d746-750), sequence (P00533 other isoform, or with tags, fused parts or gaps del 1-694/del 746-750 limits assumed): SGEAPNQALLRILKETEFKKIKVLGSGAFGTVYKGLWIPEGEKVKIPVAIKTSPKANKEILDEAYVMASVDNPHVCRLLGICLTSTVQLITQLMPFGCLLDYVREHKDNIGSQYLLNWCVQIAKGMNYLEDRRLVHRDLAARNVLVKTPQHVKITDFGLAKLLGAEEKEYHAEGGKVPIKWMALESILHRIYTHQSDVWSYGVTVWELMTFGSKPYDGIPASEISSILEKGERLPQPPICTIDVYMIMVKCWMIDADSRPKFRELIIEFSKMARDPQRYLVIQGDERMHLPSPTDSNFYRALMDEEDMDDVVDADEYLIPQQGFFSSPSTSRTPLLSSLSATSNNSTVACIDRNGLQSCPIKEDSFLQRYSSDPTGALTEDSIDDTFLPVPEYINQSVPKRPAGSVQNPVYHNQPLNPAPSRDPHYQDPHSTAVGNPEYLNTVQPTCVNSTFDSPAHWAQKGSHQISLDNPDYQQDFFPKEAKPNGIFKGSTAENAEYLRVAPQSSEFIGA
EGFR L858R, sequence (P00533 25-1210 L858R): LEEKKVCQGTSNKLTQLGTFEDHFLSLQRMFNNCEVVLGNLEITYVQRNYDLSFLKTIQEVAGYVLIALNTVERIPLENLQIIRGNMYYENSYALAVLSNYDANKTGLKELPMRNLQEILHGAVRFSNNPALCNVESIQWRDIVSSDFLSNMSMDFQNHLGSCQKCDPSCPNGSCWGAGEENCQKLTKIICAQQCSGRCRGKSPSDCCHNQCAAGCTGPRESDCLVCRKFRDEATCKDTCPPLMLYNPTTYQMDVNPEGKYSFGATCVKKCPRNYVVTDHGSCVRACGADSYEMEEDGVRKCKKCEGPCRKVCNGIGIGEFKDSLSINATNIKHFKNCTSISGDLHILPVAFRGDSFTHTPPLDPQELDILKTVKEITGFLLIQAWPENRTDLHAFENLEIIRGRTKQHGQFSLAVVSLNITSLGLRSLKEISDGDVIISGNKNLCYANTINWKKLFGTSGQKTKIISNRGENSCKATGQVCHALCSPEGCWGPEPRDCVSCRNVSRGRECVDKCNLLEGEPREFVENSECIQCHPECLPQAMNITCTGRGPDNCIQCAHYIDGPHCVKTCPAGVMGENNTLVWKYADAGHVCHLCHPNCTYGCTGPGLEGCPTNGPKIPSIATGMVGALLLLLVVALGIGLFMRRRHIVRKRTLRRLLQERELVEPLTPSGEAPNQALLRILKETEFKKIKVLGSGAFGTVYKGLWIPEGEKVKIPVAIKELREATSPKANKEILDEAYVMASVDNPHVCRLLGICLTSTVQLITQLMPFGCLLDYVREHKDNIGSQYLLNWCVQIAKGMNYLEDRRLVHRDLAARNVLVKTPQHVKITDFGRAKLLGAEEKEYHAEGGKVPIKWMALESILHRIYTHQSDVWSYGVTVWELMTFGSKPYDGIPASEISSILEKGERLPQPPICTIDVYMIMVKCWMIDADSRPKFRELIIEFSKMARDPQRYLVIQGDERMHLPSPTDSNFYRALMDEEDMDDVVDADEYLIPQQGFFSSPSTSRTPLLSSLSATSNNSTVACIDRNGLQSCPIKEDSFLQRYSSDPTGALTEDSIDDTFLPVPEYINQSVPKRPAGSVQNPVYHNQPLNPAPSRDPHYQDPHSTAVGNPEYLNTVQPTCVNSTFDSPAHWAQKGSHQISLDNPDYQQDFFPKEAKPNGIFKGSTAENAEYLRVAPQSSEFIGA

As to `COc1cc2ncnc(-c3cn(C)nc3-c3ccc(F)cc3)c2cc1NC(=O)C1(CN(C)C)CC1` [Example 211, 1-((dimethylamino)methyl)-N-(4-(3-(4-fluorophenyl)-1-methyl-1H-pyrazol-4-yl)-7-methoxyquinazolin-6-yl)cyclopropane-1-carboxamide], the IC50 (in general, the concentration needed to halve the response being measured) at EGFR (d746-750) was found to be 1.5 nM; in assay [1], 3.3 nM; on EGFR L858R, 2.8 nM.

As for `COc1cc2ncnc(-c3cn(C)nc3-c3ccc(F)cc3)c2cc1NC(=O)C1CC(F)(F)C1` [Example 212, 3,3-difluoro-N-(4-(3-(4-fluorophenyl)-1-methyl-1H-pyrazol-4-yl)-7-methoxyquinazolin-6-yl)cyclobutane-1-carboxamide], the figures for the IC50 (on EGFR (d746-750); in assay [1]; at EGFR L858R) were 0.2 nM, 1 nM and 0.4 nM, respectively.

Turning to `COc1cc2ncnc(-c3cn(CC(F)F)nc3-c3ccccc3)c2cc1NC(=O)c1cncs1` [Example 213, N-(4-(1-(2,2-difluoroethyl)-3-phenyl-1H-pyrazol-4-yl)-7-methoxyquinazolin-6-yl)thiazole-5-carboxamide], the 50% inhibitory concentration (IC50) on EGFR (d746-750) came out at 0.6 nM; in assay [1], 0.6 nM; on EGFR L858R it was 0.9 nM.

In the case of `COCC1(C(=O)Nc2cc3c(-c4cn(C)nc4-c4ccccc4)ncnc3cc2OC)CCC1` [Example 214, N-(7-methoxy-4-(1-methyl-3-phenyl-1H-pyrazol-4-yl)quinazolin-6-yl)-1-(methoxymethyl)cyclobutane-1-carboxamide], the IC50 at EGFR (d746-750) came out at 0.9 nM; in assay [1] it was 1.2 nM; at EGFR L858R, 1.6 nM.

With `COc1cc2ncnc(-c3cn(C)nc3-c3ccccc3)c2cc1NC(=O)C1CC(OC)C1` (stereo not drawn) [Example 215, 3-methoxy-N-(7-methoxy-4-(1-methyl-3-phenyl-1H-pyrazol-4-yl)quinazolin-6-yl)cyclobutane-1-carboxamide], the results for the IC50 (on EGFR (d746-750); in assay [1]; on EGFR L858R) were 1.6 nM, 1.1 nM and 2.7 nM, respectively.

With `COc1cc2ncnc(-c3cn(C)nc3-c3ccccc3)c2cc1NC(=O)C1(c2cccnc2)CC1` [Example 216, N-(7-methoxy-4-(1-methyl-3-phenyl-1H-pyrazol-4-yl)quinazolin-6-yl)-1-(pyridin-3-yl)cyclopropane-1-carboxamide], the IC50 at EGFR (d746-750) is 0.9 nM; in assay [1], 3.8 nM; at EGFR L858R, 2.1 nM.

Turning to `COc1cc2ncnc(-c3cn(C)nc3-c3ccccc3)c2cc1NC(=O)c1cn(C(C)C)nc1C` [Example 217, 1-isopropyl-N-(7-methoxy-4-(1-methyl-3-phenyl-1H-pyrazol-4-yl)quinazolin-6-yl)-3-methyl-1H-pyrazole-4-carboxamide], the IC50 on EGFR (d746-750) is 0.9 nM; in assay [1], 1.2 nM; on EGFR L858R it was 1.7 nM.

For the molecule `COc1cc2ncnc(-c3cn(C)nc3-c3ccccc3)c2cc1NC(=O)c1ccnn1C(C)C` [Example 218, 1-isopropyl-N-(7-methoxy-4-(1-methyl-3-phenyl-1H-pyrazol-4-yl)quinazolin-6-yl)-1H-pyrazole-5-carboxamide], the values for the IC50 (on EGFR (d746-750); in assay [1]; at EGFR L858R) were 1 nM, 2.7 nM and 2.1 nM, respectively.

Regarding `CCn1cc(C(=O)Nc2cc3c(-c4cn(C)nc4-c4ccccc4)ncnc3cc2OC)cn1` [Example 219, 1-ethyl-N-(7-methoxy-4-(1-methyl-3-phenyl-1H-pyrazol-4-yl)quinazolin-6-yl)-1H-pyrazole-4-carboxamide], the IC50 is 1.1 nM at EGFR (d746-750), 1.7 nM in assay [1] and 1.9 nM on EGFR L858R.

For the molecule `COc1cc2ncnc(-c3cn(C)nc3-c3ccccc3)c2cc1NC(=O)C(C)N(C)C` (stereo not drawn) [Example 220, 2-(dimethylamino)-N-(7-methoxy-4-(1-methyl-3-phenyl-1H-pyrazol-4-yl)quinazolin-6-yl)propanamide], the IC50 at EGFR (d746-750) turned out to be 1.7 nM; in assay [1] it was 4.7 nM; on EGFR L858R, 5 nM.

As to `COc1cc2ncnc(-c3cn(C)nc3-c3ccccc3)c2cc1NC(=O)C(C)F` (stereo not drawn) [Example 221, 2-fluoro-N-(7-methoxy-4-(1-methyl-3-phenyl-1H-pyrazol-4-yl)quinazolin-6-yl)propanamide], the results for the IC50 (at EGFR (d746-750); in assay [1]; on EGFR L858R) were 1 nM, 2.3 nM and 1.8 nM, respectively.

For the molecule `COc1cc2ncnc(-c3cn(C)nc3-c3ccccc3)c2cc1NC(=O)c1ccc(F)cc1` [Example 222, 4-fluoro-N-(7-methoxy-4-(1-methyl-3-phenyl-1H-pyrazol-4-yl)quinazolin-6-yl)benzamide], the values for the half-inhibitory concentration (IC50) (on EGFR (d746-750); in assay [1]; at EGFR L858R) were 0.9 nM, 1.5 nM and 1.5 nM, respectively.

`COc1cc2ncnc(-c3cn(C)nc3-c3ccccc3)c2cc1NC(=O)C1C2COCC21` (stereo not drawn) [Example 223, N-(7-methoxy-4-(1-methyl-3-phenyl-1H-pyrazol-4-yl)quinazolin-6-yl)-3-oxabicyclo[3.1.0]hexane-6-carboxamide]: the IC50 on EGFR (d746-750) worked out at 2.1 nM; in assay [1], 3.2 nM; on EGFR L858R, 2.9 nM.

On to `COc1cc2ncnc(-c3cn(C)nc3-c3ccccc3)c2cc1NC(=O)C1(C)CCCO1` (stereo not drawn) [Example 224, N-(7-methoxy-4-(1-methyl-3-phenyl-1H-pyrazol-4-yl)quinazolin-6-yl)-2-methyltetrahydrofuran-2-carboxamide], for which the IC50 on EGFR (d746-750) is 3 nM; in assay [1], 3.9 nM; at EGFR L858R it was 5.1 nM.

With `COc1cc2ncnc(-c3cn(C)nc3-c3ccccc3)c2cc1NC(=O)c1cc2n(n1)CCCC2` [Example 225, N-(7-methoxy-4-(1-methyl-3-phenyl-1H-pyrazol-4-yl)quinazolin-6-yl)-4,5,6,7-tetrahydropyrazolo[1,5-a]pyridine-2-carboxamide], the IC50 was found to be 9 nM at EGFR (d746-750), 5.1 nM in assay [1] and 14 nM on EGFR L858R.

Turning to `COc1cc2ncnc(-c3cn(C)nc3-c3ccccc3)c2cc1NC(=O)c1cnn2c1CCCC2` [Example 226, N-(7-methoxy-4-(1-methyl-3-phenyl-1H-pyrazol-4-yl)quinazolin-6-yl)-4,5,6,7-tetrahydropyrazolo[1,5-a]pyridine-3-carboxamide], the IC50 at EGFR (d746-750) came out at 1 nM; in assay [1], 1.4 nM; on EGFR L858R, 1.6 nM.

Take `COc1cc2ncnc(-c3cn(C)nc3-c3ccccc3)c2cc1NC(=O)c1ccccc1N1CCNCC1` [Example 227, N-(7-methoxy-4-(1-methyl-3-phenyl-1H-pyrazol-4-yl)quinazolin-6-yl)-2-(piperazin-1-yl)benzamide]: the IC50 was 2.7 nM on EGFR (d746-750), 6.7 nM in assay [1] and 15.2 nM on EGFR L858R.

Consider `COc1cc2ncnc(-c3cn(C)nc3-c3ccccc3)c2cc1NC(=O)C1CCN1` (stereo not drawn) [Example 228, N-(7-methoxy-4-(1-methyl-3-phenyl-1H-pyrazol-4-yl)quinazolin-6-yl)azetidine-2-carboxamide], for which the results for the half-maximal inhibitory concentration (IC50) (on EGFR (d746-750); in assay [1]; at EGFR L858R) were 1.7 nM, 5.6 nM and 2.8 nM, respectively.

Regarding `COc1cc2ncnc(-c3cn(C)nc3-c3ccccc3)c2cc1NC(=O)c1ccc(C2CC2)nc1` [Example 229, 6-cyclopropyl-N-(7-methoxy-4-(1-methyl-3-phenyl-1H-pyrazol-4-yl)quinazolin-6-yl) nicotinamide], the figures for the half-maximal inhibitory concentration (IC50) (at EGFR (d746-750); in assay [1]; at EGFR L858R) were 1.7 nM, 3.7 nM and 3.5 nM, respectively.

Regarding `COc1cc2ncnc(-c3cn(C)nc3-c3ccccc3F)c2cc1NC(=O)c1ccc(C2CC2)nc1` [Example 230, 6-cyclopropyl-N-(4-(3-(2-fluorophenyl)-1-methyl-1H-pyrazol-4-yl)-7-methoxyquinazolin-6-yl) nicotinamide], the concentration for half-maximal inhibition (IC50) on EGFR (d746-750) was 0.9 nM; in assay [1], 2.3 nM; at EGFR L858R it was 1.5 nM.

As for `COc1cc2ncnc(-c3cn(C)nc3-c3ccccc3)c2cc1NC(=O)c1c(Cl)cccc1Cl` [Example 231, 2,6-dichloro-N-(7-methoxy-4-(1-methyl-3-phenyl-1H-pyrazol-4-yl)quinazolin-6-yl)benzamide], the figures for the IC50 (on EGFR (d746-750); in assay [1]; at EGFR L858R) were 1 nM, 2.4 nM and 1.5 nM, respectively.

With `CCOc1cc2ncnc(-c3cn(C)nc3-c3ccccc3)c2cc1NC(=O)c1cnn(C(F)(F)F)c1` [Example 232, N-(7-ethoxy-4-(1-methyl-3-phenyl-1H-pyrazol-4-yl)quinazolin-6-yl)-1-(trifluoromethyl)-1H-pyrazole-4-carboxamide], the IC50 was 1.5 nM at EGFR (d746-750), 4.1 nM in assay [1] and 2.7 nM at EGFR L858R.

Take `COc1cc2ncnc(-c3cn(C)nc3-c3ccccc3)c2cc1-c1cnn(CCN(C)C)c1` [Example 233, 2-(4-(7-methoxy-4-(1-methyl-3-phenyl-1H-pyrazol-4-yl)quinazolin-6-yl)-1H-pyrazol-1-yl)-N,N-dimethylethan-1-amine]: the IC50 turned out to be 1.7 nM at EGFR (d746-750), 2.5 nM in assay [1] and 2.9 nM at EGFR L858R.

On to `COc1cc2ncnc(-c3cn(C)nc3-c3ccccc3)c2cc1NC(=O)c1cnn(C(F)(F)F)c1C` [Example 234, N-(7-methoxy-4-(1-methyl-3-phenyl-1H-pyrazol-4-yl)quinazolin-6-yl)-5-methyl-1-(trifluoromethyl)-1H-pyrazole-4-carboxamide], for which the figures for the IC50 (on EGFR (d746-750); in assay [1]; on EGFR L858R) were 1.1 nM, 2.8 nM and 1.9 nM, respectively.

As to `COc1cc2ncnc(-c3cn(C)nc3-c3ccccc3)c2cc1NC(=O)c1cn(C(F)(F)F)nc1C` [Example 235, N-(7-methoxy-4-(1-methyl-3-phenyl-1H-pyrazol-4-yl)quinazolin-6-yl)-3-methyl-1-(trifluoromethyl)-1H-pyrazole-4-carboxamide], the IC50 came to 0.9 nM on EGFR (d746-750), 1.5 nM in assay [1] and 1.6 nM at EGFR L858R.
